Assay results: patent US20150290226A1, “NOVEL LYOPHILIZED COMPOSITIONS OF CYCLOPHOSPHAMIDE” (LEIUTIS PHARMACEUTICALS PVT. LTD., priority 2012, published 2015)
“And” between values parts separate entries of the source, which are not always exact repeats. Identical values can stand only once. Like-named read-outs stand apart in the source and are kept apart here.

Experiments:
[1] = Moisture content (KF titration) of drug substance and lyophilizate; type: physicochemical; conditions: Sample numbers I, II, III, listed as Drug substance (Monohydrate Form)
Excerpt: (§1) The moisture content and water activity of the drug substance as well as the lyophilizate was checked to ensure the retention of the crystalline monohydrate form of the drug substance in the Lyophilizate. Water activity instruments measure the amount of free (sometimes referred to as unbound or active) water present in the sample and KF titration measures the total water in a sample.

[2] = Description: The solubility of Cyclophosphamide monohydrate in various solvents was checked. The quantity of solvent consumed for dissolving 100 mg of Cyclophosphamide monohydrate is given below: […]
[3] = remark: listed apart in the source
Excerpt: The change of description of Cyclophosphamide monohydrate at various temperatures was studied by exposing the drug to different temperatures under constant vacuum and details are given in Tables 6 & 7: […]

[4] = Water activity of drug substance and lyophilizate; type: physicochemical; conditions: Sample numbers I, II, III, listed as Drug substance (Monohydrate Form)
Excerpt: as §1

[5] = Vacuum 1000 mtorr, +25° C. (5 hrs)
[6] = Vacuum 1000 mtorr, −2° C. (12 hrs)
[7] = Vacuum 1000 mtorr, −15° C. (19 hrs)
[8] = Vacuum 1000 mtorr, −25° C. (12 hrs)
[9] = Vacuum 1000 mtorr, −40° C. (5 hrs)

Cl.[O-][P+]1(N(CCCl)CCCl)NCCCO1 (stereo not drawn) [Cyclophosphamide monohydrate, 2-[bis(2-chloroethyl)amino]tetrahydro-2H-1,3,2-oxazaphosphorine 2-oxide monohydrate]
Moisture Content (%) [1]: 6.64% and 6.75% and 6.72% | quantity of solvent consumed for dissolving 100 mg ([2]; Acetone): 0.4 mL | quantity of solvent consumed for dissolving 100 mg ([2]; Acetonitrile): 0.5 mL | quantity of solvent consumed for dissolving 100 mg ([2]; Dimethyacetamide): 2.0 mL | quantity of solvent consumed for dissolving 100 mg ([2]; Ethanol): 0.5 mL | quantity of solvent consumed for dissolving 100 mg ([2]; Tertiary butyl alcohol): 0.5 mL | quantity of solvent consumed for dissolving 100 mg ([2]; Water): 2.45 mL | % Moisture content ([3]; Initial): 6.87% | Observation for Description ([3]; Initial): Powder | % Moisture content [3, 5]: 2.94% | Observation for Description [3, 5]: Liquid | % Moisture content [3, 6]: 4.52% | Observation for Description [3, 6]: Sticky | % Moisture content [3, 7]: 6.29% | Observation for Description [3, 7]: Powder | % Moisture content [3, 8]: 6.27% | Observation for Description [3, 8]: Powder | % Moisture content [3, 9]: 6.23% | Observation for Description [3, 9]: Powder | Description ([3]; −10 °C, 350 mtorr and 6 hours): Powder | Moisture Content (%) ([3]; −10 °C, 350 mtorr and 6 hours): 7.56% | Description ([3]; −15 °C, 350 mtorr and 12 hours): Powder | Moisture Content (%) ([3]; −15 °C, 350 mtorr and 12 hours): 6.99% | Description ([3]; −25 °C, 150 mtorr and 6 hours): Powder | Moisture Content (%) ([3]; −25 °C, 150 mtorr and 6 hours): 6.87% | Description ([3]; −25 °C, 150 mtorr and 15 hours): Sticky Mass | Moisture Content (%) ([3]; −25 °C, 150 mtorr and 15 hours): 4.55% | Description ([3]; −25 °C, 280 mtorr and 12 hours): Powder | Moisture Content (%) ([3]; −25 °C, 280 mtorr and 12 hours): 6.51% | Water Activity (aw) [4]: 0.374 and 0.372 and 0.373
